Laboratory results as given in patent US9302999B2, “Substituted triazoles as herbicides” (E. I. DU PONT DE NEMOURS AND COMPANY, priority 2012, dated 2016).

Columns and labels:
Type in all cases: in vivo
[1] = tested on: mustard, wild (wild mustard, Sinapis arvensis); assay: Test D pre-/postemergence: mustard, wild
Source text: (§1) Seeds of plant species selected from bluegrass (annual bluegrass, Poa annua), blackgrass (Alopecurus myosuroides), canarygrass (Phalaris minor), chickweed (common chickweed, Stellaria media), galium (catchweed bedstraw, Galium aparine), bromegrass, downy (downy bromegrass, Bromus tectorum), field poppy (Papaver rhoeas), field violet (Viola arvensis), foxtail, green (green foxtail, Setaria viridis), deadnettle (henbit deadnettle, Lamium amplexicaule), ryegrass, Italian (Italian ryegrass, Lolium multiflorum), kochia (Kochia scoparia), lambsquarters (Chenopodium album), oilseed rape (Brassica napus), pigweed (Amaranthus retroflexus), Russian thistle (Salsola iberica), chamomile (scentless chamomile, Matricaria inodora), speedwell (bird's-eye speedwell, Veronica persica), barley, spring (spring barley, Hordeum vulgare), wheat, spring (spring wheat, Triticum aestivum), buckwheat, wild (wild buckwheat, Polygonum convolvulus), mustard, wild (wild mustard, Sinapis arvensis), oat, wild (wild oat, Avena fatua), radish, wild (wild radish, Raphanus raphanistrum), windgrass (Apera spica-venti), barley, winter (winter barley, Hordeum vulgare), and wheat, winter (winter wheat, Triticum aestivum) were planted into a silt loam soil and treated preemergence with test chemicals formulated in a non-phytotoxic solvent mixture which included a surfactant. At the same time, these same crop and weed species were planted in pots containing the planting medium comprising spaghnum peat moss, vermiculite, wetting agent and starter nutrients and treated with postemergence applications of the test chemicals formulated in the same manner. Plants ranged in height from 2 to 18 cm (1- to 4-leaf stage).
(§2) Treated plants and controls were maintained in a controlled growth environment for 14 to 21 days after which time all species were compared to controls and visually evaluated. Plant response ratings, summarized in Table D, are based on a scale of 0 to 100 where 0 is no effect and 100 is complete control. A dash (-) response means no test result.

[2] = tested on: blackgrass (Alopecurus myosuroides); assay: Test D pre-/postemergence: blackgrass
Source text: as §1, §2

[3] = tested on: sedge, umbrella (small-flower umbrella sedge, Cyperus difformis); assay: Test C flooded paddy test: sedge, umbrella; conditions: scale 0 to 100 (0 no effect, 100 complete control)
Outline: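 Plants were grown to the 2-leaf stage, pots flooded to 3 cm above soil, and test compounds applied directly to the paddy water, with that depth held throughout. After 13 to 15 days in a greenhouse, injury was visually rated against controls on a 0 (no effect) to 100 (complete control) scale.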

[4] = tested on: bluegrass (annual bluegrass, Poa annua); assay: Test D pre-/postemergence: bluegrass
Outline: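 Species were sown in silt loam and sprayed preemergence, or grown in peat/vermiculite medium and sprayed postemergence at the 1- to 4-leaf stage (2–18 cm), with compounds in a surfactant-containing solvent. Injury was visually rated against untreated controls after 14–21 days, on a 0 (no effect) to 100 (complete control) scale.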

[5] = tested on: ryegrass, Italian (Italian ryegrass, Lolium multiflorum); assay: Test D pre-/postemergence: ryegrass, Italian
Source text: as §1, §2

[6] = tested on: cocklebur (common cocklebur, Xanthium strumarium); assay: Test F pre-/postemergence: cocklebur; conditions: Preemergence
Source text: (§3) Seeds of plant species selected from corn (Zea mays), soybean (Glycine max), velvetleaf (Abutilon theophrasti), lambsquarters (Chenopodium album), poinsettia, wild (wild poinsettia, Euphorbia heterophylla), pigweed, palmer (palmer pigweed, Amaranthus palmeri), waterhemp (common waterhemp, Amaranthus rudis), surinam grass (Brachiaria decumbens), crabgrass, Brazil (Brazilian crabgrass, Digitaria horizontalis), panicum, fall (fall panicum Panicum dichotomiflorum), crabgrass, large (large crabgrass, Digitaria sanguinalis), foxtail, giant (giant foxtail, Setaria faberii), foxtail, green (green foxtail Setaria viridis), goosegrass (Eleusine indica), ragweed (common ragweed, Ambrosia elatior), barnyardgrass (Echinochloa crus-galli), sandbur (southern sandbur, Cenchrus echinatus), arrowleaf sida (Sida rhombifolia), ryegrass, Italian (Italian ryegrass, Lolium multiflorum), dayflower, VA (Virginia (VA) dayflower, Commelina virginica), field bindweed (Convolvulus arvensis), cocklebur (common cocklebur, Xanthium strumarium), morningglory (Ipomoea coccinea), nightshade (eastern black nightshade, Solanum ptycanthum), kochia (Kochia scoparia), nutsedge, yellow (yellow nutsedge, Cyperus esculentus), johnsongrass (Sorghum halepense), smartweed (ladysthumb smartweed, Polygonum persicaria), and beggarticks (hairy beggarticks, Bidens pilosa), were planted into a silt loam soil and treated preemergence with test chemicals formulated in a non-phytotoxic solvent mixture which included a surfactant. At the same time, plants selected from these crop and weed species and also pigweed (Amaranthus retroflexus), waterhemp_RES1 (ALS/Triazine resistant common waterhemp, Amaranthus rudis) and waterhemp_RES2 (ALS/HPPD resistant common waterhemp, Amaranthus rudis) were planted in pots containing a planting medium comprising spaghnum peat moss, vermiculite, wetting agent and starter nutrients treated with postemergence applications of some of the test chemicals formulated in the same manner. Plants ranged in height from 2 to 18 cm for postemergence treatments (1- to 4-leaf stage).
as §2, with “greenhouse” for “controlled growth environment”, “days,” for “days”, “E,” for “D,”

[7] = tested on: ryegrass, Italian (Italian ryegrass, Lolium multiflorum); assay: Test F pre-/postemergence: ryegrass, Italian
Source text: as §3
as §2, with “greenhouse” for “controlled growth environment”, “days,” for “days”, “E,” for “D,”

[8] = Postemergence, 31 g ai/ha, scale 0 to 100 (0 no effect, 100 complete control)
[9] = Postemergence, 62 g ai/ha, scale 0 to 100 (0 no effect, 100 complete control)
[10] = Postemergence, 125 g ai/ha, scale 0 to 100, 0 no effect, 100 complete control
[11] = Postemergence, 250 g ai/ha, scale 0 to 100 (0 no effect, 100 complete control)
[12] = Postemergence, 16 g ai/ha, scale 0 to 100
[13] = Flood (flooded paddy test), 125 g ai/ha, visual rating after 13 to 15 days
[14] = Flood (flooded paddy test), 250 g ai/ha, visual rating after 13 to 15 days
[15] = Preemergence, 31 g ai/ha, scale 0 to 100, 0 no effect, 100 complete control
[16] = Preemergence, 62 g ai/ha, scale 0 to 100
[17] = Preemergence, 125 g ai/ha, scale 0 to 100
[18] = Preemergence, 250 g ai/ha, scale 0 to 100
[19] = Preemergence, 16 g ai/ha, scale 0 to 100, 0 no effect, 100 complete control

Cc1nn(-c2ccc(C(F)(F)F)cn2)nc1Oc1ccnc(C(F)(F)F)c1 [Compound 23]
Plant response rating: Mustard, Wild [1, 8]: 40 | Plant response rating: Mustard, Wild [1, 9]: 85 | Plant response rating: Mustard, Wild [1, 10]: 100 | Plant response rating: Mustard, Wild [1, 11]: 100 | Plant response rating, Mustard, Wild [1, 12]: 20 | Plant response rating: Blackgrass [2, 8]: 10 | Plant response rating: Blackgrass [2, 9]: 10 | Plant response rating: Blackgrass [2, 10]: 20 | Plant response rating: Blackgrass [2, 11]: 30 | Plant response rating, Blackgrass [2, 12]: 5 | Plant response rating, Sedge, Umbrella ([3]; Flood (flooded paddy test), 62 g ai/ha, visual rating after 13 to 15 days): 75 | Plant response rating, Sedge, Umbrella [3, 13]: 80 | Plant response rating, Sedge, Umbrella [3, 14]: 90 | Plant response rating, Sedge, Umbrella ([3]; Flood, 31 g ai/ha): 60 | Plant response rating: Bluegrass [4, 8]: 20 | Plant response rating: Bluegrass [4, 9]: 25 | Plant response rating: Bluegrass [4, 10]: 30 | Plant response rating: Bluegrass [4, 11]: 40 | Plant response rating, Bluegrass [4, 12]: 20 | Plant response rating: Ryegrass, Italian [5, 8]: 10 | Plant response rating: Ryegrass, Italian [5, 9]: 10 | Plant response rating: Ryegrass, Italian [5, 10]: 10 | Plant response rating: Ryegrass, Italian [5, 11]: 15 | Plant response rating, Ryegrass, Italian [5, 12]: 5

Cc1nn(-c2ccc(C(F)(F)F)cn2)nc1Cc1cccc(C(F)(F)F)c1 [Compound 106]
Plant response rating: Mustard, Wild [1, 8]: 80 | Plant response rating: Mustard, Wild [1, 9]: 80 | Plant response rating: Mustard, Wild [1, 10]: 90 | Plant response rating: Mustard, Wild [1, 11]: 100 | Plant response rating, Mustard, Wild [1, 12]: 20 | Plant response rating, Mustard, Wild [1, 15]: 20 | Plant response rating, Mustard, Wild [1, 16]: 50 | Plant response rating, Mustard, Wild [1, 17]: 50 | Plant response rating, Mustard, Wild [1, 18]: 60 | Plant response rating: Blackgrass [2, 8]: 10 | Plant response rating: Blackgrass [2, 9]: 10 | Plant response rating: Blackgrass [2, 10]: 20 | Plant response rating: Blackgrass [2, 11]: 30 | Plant response rating, Blackgrass [2, 12]: 5 | Plant response rating, Blackgrass [2, 15]: 0 | Plant response rating, Blackgrass [2, 16]: 0 | Plant response rating, Blackgrass [2, 17]: 0 | Plant response rating, Blackgrass [2, 18]: 0 | Plant response rating, Sedge, Umbrella [3, 13]: 75 | Plant response rating, Sedge, Umbrella [3, 14]: 80 | Plant response rating, Sedge, Umbrella ([3]; Flood, 31 g ai/ha): 50 | Plant response rating, Sedge, Umbrella ([3]; Flood, 62 g ai/ha): 50 | Plant response rating: Bluegrass [4, 8]: 10 | Plant response rating: Bluegrass [4, 9]: 10 | Plant response rating: Bluegrass [4, 10]: 15 | Plant response rating: Bluegrass [4, 11]: 30 | Plant response rating, Bluegrass [4, 12]: 10 | Plant response rating, Bluegrass [4, 16]: 0 | Plant response rating, Bluegrass [4, 17]: 0 | Plant response rating, Bluegrass [4, 18]: 0 | Plant response rating: Ryegrass, Italian [5, 8]: 5 | Plant response rating: Ryegrass, Italian [5, 9]: 5 | Plant response rating: Ryegrass, Italian [5, 10]: 10 | Plant response rating: Ryegrass, Italian [5, 11]: 20 | Plant response rating, Ryegrass, Italian [5, 12]: 5 | Plant response rating, Ryegrass, Italian [5, 15]: 0 | Plant response rating, Ryegrass, Italian [5, 16]: 0 | Plant response rating, Ryegrass, Italian [5, 17]: 0 | Plant response rating, Ryegrass, Italian [5, 18]: 0

Cc1nn(-c2ccc(C(F)(F)F)cc2)nc1Oc1ccnc(C(F)(F)F)c1 [Compound 120]
Plant response rating, Mustard, Wild [1, 19]: 0 | Plant response rating, Mustard, Wild [1, 16]: 90 | Plant response rating, Mustard, Wild [1, 17]: 100 | Plant response rating, Mustard, Wild [1, 18]: 100 | Plant response rating: Blackgrass [2, 8]: 10 | Plant response rating: Blackgrass [2, 9]: 30 | Plant response rating: Blackgrass [2, 10]: 75 | Plant response rating: Blackgrass [2, 11]: 85 | Plant response rating, Blackgrass [2, 12]: 5 | Plant response rating, Blackgrass [2, 19]: 0 | Plant response rating, Blackgrass [2, 15]: 80 | Plant response rating, Blackgrass [2, 16]: 98 | Plant response rating, Blackgrass [2, 17]: 100 | Plant response rating, Blackgrass [2, 18]: 100 | Plant response rating, Sedge, Umbrella [3, 13]: 90 | Plant response rating, Sedge, Umbrella [3, 14]: 90 | Plant response rating, Sedge, Umbrella ([3]; Flood, 62 g ai/ha): 85 | Plant response rating: Bluegrass [4, 8]: 10 | Plant response rating: Bluegrass [4, 9]: 40 | Plant response rating: Bluegrass [4, 10]: 70 | Plant response rating: Bluegrass [4, 11]: 95 | Plant response rating, Bluegrass [4, 12]: 10 | Plant response rating, Bluegrass [4, 19]: 0 | Plant response rating, Bluegrass [4, 15]: 100 | Plant response rating, Bluegrass [4, 16]: 100 | Plant response rating, Bluegrass [4, 17]: 100 | Plant response rating, Bluegrass [4, 18]: 100 | Plant response rating: Ryegrass, Italian [5, 8]: 5 | Plant response rating: Ryegrass, Italian [5, 9]: 10 | Plant response rating: Ryegrass, Italian [5, 10]: 15 | Plant response rating: Ryegrass, Italian [5, 11]: 30 | Plant response rating, Ryegrass, Italian [5, 12]: 5 | Plant response rating, Ryegrass, Italian [5, 19]: 0 | Plant response rating, Ryegrass, Italian [5, 15]: 5 | Plant response rating, Ryegrass, Italian [5, 16]: 40 | Plant response rating, Ryegrass, Italian [5, 17]: 80 | Plant response rating, Ryegrass, Italian [5, 18]: 100

COc1nn(-c2cccc(F)c2)nc1Cc1ccnc(C(F)(F)F)c1 [Compound 139]
Plant response rating, Cocklebur ([6]; 62 g ai/ha, scale 0 to 100): 0 | Plant response rating, Cocklebur ([6]; 125 g ai/ha, scale 0 to 100): 0 | Plant response rating, Ryegrass, Italian [7, 19]: 0 | Plant response rating, Ryegrass, Italian [7, 15]: 5 | Plant response rating, Ryegrass, Italian [7, 17]: 30 | Plant response rating, Ryegrass, Italian [7, 18]: 95

Cc1nn(-c2ccnc(Cl)c2)nc1Cc1ccnc(C(F)(F)F)c1 [Compound 141]
Plant response rating, Ryegrass, Italian ([7]; Postemergence, 8 g ai/ha, scale 0 to 100): 10 | Plant response rating, Ryegrass, Italian [7, 12]: 10 | Plant response rating, Ryegrass, Italian ([7]; Postemergence, 31 g ai/ha, scale 0 to 100): 15 | Plant response rating, Ryegrass, Italian ([7]; Postemergence, 62 g ai/ha, scale 0 to 100): 25 | Plant response rating, Ryegrass, Italian ([7]; Postemergence, 125 g ai/ha, scale 0 to 100): 40

Cc1nn(-c2ccc(F)cc2F)nc1Oc1ccnc(C(F)(F)F)c1 [Compound 146]
Plant response rating, Ryegrass, Italian [7, 19]: 0 | Plant response rating, Ryegrass, Italian [7, 15]: 10 | Plant response rating, Ryegrass, Italian [7, 17]: 20 | Plant response rating, Ryegrass, Italian [7, 18]: 25

CCc1nn(-c2ccc(F)cc2)nc1Cc1ccnc(C(F)(F)F)c1 [Compound 154]
Plant response rating, Cocklebur ([6]; 16 g ai/ha, scale 0 to 100, 0 no effect, 100 complete control): 0 | Plant response rating, Cocklebur ([6]; 62 g ai/ha, scale 0 to 100): 0 | Plant response rating, Cocklebur ([6]; 250 g ai/ha, scale 0 to 100): 0 | Plant response rating, Ryegrass, Italian [7, 19]: 0 | Plant response rating, Ryegrass, Italian [7, 15]: 0 | Plant response rating, Ryegrass, Italian [7, 17]: 70 | Plant response rating, Ryegrass, Italian [7, 18]: 100
